Laboratory results: BigSolDB 2.1

CO[C@H]1O[C@@H]2O[C@@]3(C)CC[C@H]4[C@H](C)CC[C@@H]([C@H]1C)[C@@]24OO3
solubility (mole fraction)
Conditions | in ethanol | in methanol
289.05 K | 0.0395 | –
289.45 K | – | 0.0263
290.85 K | 0.0426 | –
291.15 K | – | 0.0295
293.95 K | 0.0492 | –
294.05 K | – | 0.0343
296.95 K | 0.0592 | 0.0405
299.05 K | 0.0682 | 0.0463
300.75 K | – | 0.0519
301.05 K | 0.0764 | –
303.55 K | – | 0.0649
303.95 K | 0.0903 | –
306.35 K | – | 0.0824
306.95 K | 0.11 | –
308.25 K | – | 0.0988
308.45 K | 0.117 | –
310.15 K | – | 0.116
310.45 K | 0.133 | –
312.95 K | – | 0.149
313.2 K | 0.164 | –
315.65 K | – | 0.187
316.25 K | 0.2 | –
317.35 K | – | 0.222
318.95 K | 0.251 | –
319.45 K | – | 0.297
322.05 K | – | 0.355
322.65 K | 0.315 | –
326.05 K | 0.387 | –
328.65 K | 0.442 | –
